{"source": "paper PMC7252619", "about": "(PLoS ONE, 2020)", "key": {"VEGFR2": {"target": "VEGFR2 (Homo sapiens, UniProt P35968)", "sequence (P35968 20-1356)": "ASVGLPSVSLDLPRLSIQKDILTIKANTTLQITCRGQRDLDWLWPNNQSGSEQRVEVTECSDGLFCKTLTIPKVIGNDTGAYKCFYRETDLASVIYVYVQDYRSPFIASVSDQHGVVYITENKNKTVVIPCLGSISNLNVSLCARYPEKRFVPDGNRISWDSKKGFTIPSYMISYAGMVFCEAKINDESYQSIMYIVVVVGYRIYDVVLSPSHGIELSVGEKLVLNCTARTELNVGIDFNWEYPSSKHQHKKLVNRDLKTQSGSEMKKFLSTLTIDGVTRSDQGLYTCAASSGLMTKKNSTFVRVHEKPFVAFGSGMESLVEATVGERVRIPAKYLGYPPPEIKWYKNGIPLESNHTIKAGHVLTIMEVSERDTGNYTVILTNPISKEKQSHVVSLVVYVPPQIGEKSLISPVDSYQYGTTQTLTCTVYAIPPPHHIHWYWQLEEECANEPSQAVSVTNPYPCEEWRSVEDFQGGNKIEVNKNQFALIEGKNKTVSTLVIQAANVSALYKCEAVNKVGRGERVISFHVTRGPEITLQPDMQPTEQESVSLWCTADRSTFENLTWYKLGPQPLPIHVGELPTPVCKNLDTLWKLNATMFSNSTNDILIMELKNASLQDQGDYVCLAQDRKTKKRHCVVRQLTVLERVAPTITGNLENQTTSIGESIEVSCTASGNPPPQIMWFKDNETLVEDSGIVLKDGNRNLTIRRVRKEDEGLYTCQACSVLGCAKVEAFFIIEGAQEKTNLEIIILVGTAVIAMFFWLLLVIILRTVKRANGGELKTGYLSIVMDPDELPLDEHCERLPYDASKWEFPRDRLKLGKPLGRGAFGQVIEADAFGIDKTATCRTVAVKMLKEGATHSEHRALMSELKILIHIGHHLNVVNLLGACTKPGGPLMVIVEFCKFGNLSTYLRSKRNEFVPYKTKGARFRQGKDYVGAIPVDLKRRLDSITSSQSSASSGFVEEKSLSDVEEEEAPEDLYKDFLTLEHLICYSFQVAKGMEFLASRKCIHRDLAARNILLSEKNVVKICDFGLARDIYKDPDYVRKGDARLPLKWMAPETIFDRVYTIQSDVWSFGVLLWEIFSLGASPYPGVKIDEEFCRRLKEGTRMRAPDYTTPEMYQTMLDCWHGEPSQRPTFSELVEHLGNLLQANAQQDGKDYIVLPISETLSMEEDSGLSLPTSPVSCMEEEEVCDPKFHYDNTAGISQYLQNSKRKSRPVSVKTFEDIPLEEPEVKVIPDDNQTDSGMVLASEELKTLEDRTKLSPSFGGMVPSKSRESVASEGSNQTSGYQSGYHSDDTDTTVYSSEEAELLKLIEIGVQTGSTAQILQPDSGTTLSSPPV", "experiment": "Kinase activity test (ReactionBiology), % enzyme activity relative to DMSO", "type": "biochemical", "design": "purchased ReactionBiology", "conditions": "VEGFR2"}, "CK1d": {"target": "T1, CK1d (Homo sapiens, UniProt P48730)", "T1 construct": "purchased ReactionBiology", "T1 sequence (P48730 whole entry)": "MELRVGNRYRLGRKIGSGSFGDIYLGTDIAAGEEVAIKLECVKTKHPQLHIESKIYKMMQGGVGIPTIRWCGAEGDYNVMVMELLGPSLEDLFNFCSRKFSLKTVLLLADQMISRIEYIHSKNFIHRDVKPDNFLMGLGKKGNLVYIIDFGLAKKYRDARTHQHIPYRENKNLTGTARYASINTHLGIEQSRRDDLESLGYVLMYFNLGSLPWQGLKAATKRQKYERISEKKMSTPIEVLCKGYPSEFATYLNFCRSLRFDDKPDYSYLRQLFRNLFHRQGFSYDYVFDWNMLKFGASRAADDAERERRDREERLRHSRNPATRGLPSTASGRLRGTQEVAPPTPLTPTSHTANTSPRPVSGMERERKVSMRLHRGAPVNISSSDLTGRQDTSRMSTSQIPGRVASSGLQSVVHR", "experiment": "Kinase activity test (ReactionBiology), % enzyme activity relative to DMSO", "type": "biochemical", "conditions": "CK1d"}, "[1]": {"conditions": "1 uM, Average, read-out: % Enzyme Activity (relative to DMSO controls), Average"}, "[2]": {"conditions": "1 uM, replicate Data 1, read-out: % Enzyme Activity (relative to DMSO controls), Data 1"}, "[3]": {"conditions": "1 uM, replicate Data 2, read-out: % Enzyme Activity (relative to DMSO controls), Data 2"}, "[4]": {"conditions": "10 uM, Average, read-out: % Enzyme Activity (relative to DMSO controls), Average"}, "[5]": {"conditions": "10 uM, replicate Data 1, read-out: % Enzyme Activity (relative to DMSO controls), Data 1"}, "[6]": {"conditions": "10 uM, replicate Data 2, read-out: % Enzyme Activity (relative to DMSO controls), Data 2"}}, "note": "Read-outs that look alike come from different tables or passages of the source.", "data": [{"smiles": "COc1ccc2c(c1)c(CC(=O)O)c(C)n2C(=O)c1ccc(Cl)cc1", "note": "[Iomethacin]", "values": [{"measurement": "% Enzyme Activity (relative to DMSO controls), Average", "setting": "VEGFR2; 1 uM, Average", "value": 105.43, "unit": "%"}, {"measurement": "% Enzyme Activity (relative to DMSO controls), Data 1", "setting": "VEGFR2; 1 uM, replicate Data 1", "value": 105.61, "unit": "%"}, {"measurement": "% Enzyme Activity (relative to DMSO controls), Data 2", "setting": "VEGFR2; 1 uM, replicate Data 2", "value": 105.25, "unit": "%"}, {"measurement": "% Enzyme Activity (relative to DMSO controls), Average", "setting": "VEGFR2; 10 uM, Average", "value": 102.46, "unit": "%"}, {"measurement": "% Enzyme Activity (relative to DMSO controls), Data 1", "setting": "VEGFR2; 10 uM, replicate Data 1", "value": 106.14, "unit": "%"}, {"measurement": "% Enzyme Activity (relative to DMSO controls), Data 2", "setting": "VEGFR2; 10 uM, replicate Data 2", "value": 98.78, "unit": "%"}, {"measurement": "% Enzyme Activity (relative to DMSO controls), Average", "setting": "CK1d; 1 uM, Average", "value": 102.15, "unit": "%"}, {"measurement": "% Enzyme Activity (relative to DMSO controls), Data 1", "setting": "CK1d; 1 uM, replicate Data 1", "value": 102.08, "unit": "%"}, {"measurement": "% Enzyme Activity (relative to DMSO controls), Data 2", "setting": "CK1d; 1 uM, replicate Data 2", "value": 102.21, "unit": "%"}, {"measurement": "% Enzyme Activity (relative to DMSO controls), Average", "setting": "CK1d; 10 uM, Average", "value": 95.39, "unit": "%"}, {"measurement": "% Enzyme Activity (relative to DMSO controls), Data 1", "setting": "CK1d; 10 uM, replicate Data 1", "value": 98.78, "unit": "%"}, {"measurement": "% Enzyme Activity (relative to DMSO controls), Data 2", "setting": "CK1d; 10 uM, replicate Data 2", "value": 92, "unit": "%"}]}, {"smiles": "Cn1c(=O)cc(N2CCC[C@@H](N)C2)n(Cc2ccccc2C#N)c1=O", "note": "[Alogliptin]", "values": [{"measurement": "% Enzyme Activity (relative to DMSO controls), Average", "setting": "VEGFR2; 1 uM, Average", "value": 110.86, "unit": "%"}, {"measurement": "% Enzyme Activity (relative to DMSO controls), Data 1", "setting": "VEGFR2; 1 uM, replicate Data 1", "value": 108.92, "unit": "%"}, {"measurement": "% Enzyme Activity (relative to DMSO controls), Data 2", "setting": "VEGFR2; 1 uM, replicate Data 2", "value": 112.79, "unit": "%"}, {"measurement": "% Enzyme Activity (relative to DMSO controls), Average", "setting": "VEGFR2; 10 uM, Average", "value": 104.24, "unit": "%"}, {"measurement": "% Enzyme Activity (relative to DMSO controls), Data 1", "setting": "VEGFR2; 10 uM, replicate Data 1", "value": 106.32, "unit": "%"}, {"measurement": "% Enzyme Activity (relative to DMSO controls), Data 2", "setting": "VEGFR2; 10 uM, replicate Data 2", "value": 102.16, "unit": "%"}]}, {"smiles": "CN1CC(=O)N2[C@H](c3ccc4c(c3)OCO4)c3[nH]c4ccccc4c3C[C@@H]2C1=O", "note": "[Tadalafil]", "values": [{"measurement": "% Enzyme Activity (relative to DMSO controls), Average", "setting": "VEGFR2; 1 uM, Average", "value": 102.42, "unit": "%"}, {"measurement": "% Enzyme Activity (relative to DMSO controls), Data 1", "setting": "VEGFR2; 1 uM, replicate Data 1", "value": 103.18, "unit": "%"}, {"measurement": "% Enzyme Activity (relative to DMSO controls), Data 2", "setting": "VEGFR2; 1 uM, replicate Data 2", "value": 101.65, "unit": "%"}, {"measurement": "% Enzyme Activity (relative to DMSO controls), Average", "setting": "VEGFR2; 10 uM, Average", "value": 97.95, "unit": "%"}, {"measurement": "% Enzyme Activity (relative to DMSO controls), Data 1", "setting": "VEGFR2; 10 uM, replicate Data 1", "value": 98.92, "unit": "%"}, {"measurement": "% Enzyme Activity (relative to DMSO controls), Data 2", "setting": "VEGFR2; 10 uM, replicate Data 2", "value": 96.97, "unit": "%"}, {"measurement": "% Enzyme Activity (relative to DMSO controls), Average", "setting": "CK1d; 1 uM, Average", "value": 103.78, "unit": "%"}, {"measurement": "% Enzyme Activity (relative to DMSO controls), Data 1", "setting": "CK1d; 1 uM, replicate Data 1", "value": 105.89, "unit": "%"}, {"measurement": "% Enzyme Activity (relative to DMSO controls), Data 2", "setting": "CK1d; 1 uM, replicate Data 2", "value": 101.67, "unit": "%"}, {"measurement": "% Enzyme Activity (relative to DMSO controls), Average", "setting": "CK1d; 10 uM, Average", "value": 108.37, "unit": "%"}, {"measurement": "% Enzyme Activity (relative to DMSO controls), Data 1", "setting": "CK1d; 10 uM, replicate Data 1", "value": 107.23, "unit": "%"}, {"measurement": "% Enzyme Activity (relative to DMSO controls), Data 2", "setting": "CK1d; 10 uM, replicate Data 2", "value": 109.5, "unit": "%"}]}, {"smiles": "COc1cccc2c1C(=O)c1c(O)c3c(c(O)c1C2=O)C[C@@](O)(C(=O)CO)C[C@@H]3O[C@H]1C[C@H](N)[C@H](O)[C@H](C)O1", "note": "[Doxorubicin]", "values": [{"measurement": "% Enzyme Activity (relative to DMSO controls), Average", "setting": "VEGFR2; 1 uM, Average", "value": 110.51, "unit": "%"}, {"measurement": "% Enzyme Activity (relative to DMSO controls), Data 1", "setting": "VEGFR2; 1 uM, replicate Data 1", "value": 112.09, "unit": "%"}, {"measurement": "% Enzyme Activity (relative to DMSO controls), Data 2", "setting": "VEGFR2; 1 uM, replicate Data 2", "value": 108.92, "unit": "%"}, {"measurement": "% Enzyme Activity (relative to DMSO controls), Average", "setting": "VEGFR2; 10 uM, Average", "value": 100.16, "unit": "%"}, {"measurement": "% Enzyme Activity (relative to DMSO controls), Data 1", "setting": "VEGFR2; 10 uM, replicate Data 1", "value": 99.85, "unit": "%"}, {"measurement": "% Enzyme Activity (relative to DMSO controls), Data 2", "setting": "VEGFR2; 10 uM, replicate Data 2", "value": 100.47, "unit": "%"}]}, {"smiles": "CS(=O)(=O)c1ccc(C(=O)Nc2ccc(Cl)c(-c3ccccn3)c2)c(Cl)c1", "note": "[Vismodegib]", "values": [{"measurement": "remaining activity at 1 µM", "setting": "VEGFR2; [1]", "value": 103, "unit": "%"}, {"measurement": "remaining activity at 1 µM", "setting": "VEGFR2; [2]", "value": 103, "unit": "%"}, {"measurement": "remaining activity at 1 µM", "setting": "VEGFR2; [3]", "value": 103, "unit": "%"}, {"measurement": "remaining activity at 10 µM", "setting": "VEGFR2; [4]", "value": 91.1, "unit": "%"}, {"measurement": "remaining activity at 10 µM", "setting": "VEGFR2; [5]", "value": 97.8, "unit": "%"}, {"measurement": "remaining activity at 10 µM", "setting": "VEGFR2; [6]", "value": 84.5, "unit": "%"}]}, {"smiles": "CCC1=C(C)CN(C(=O)NCCc2ccc(S(=O)(=O)NC(=O)N[C@H]3CC[C@H](C)CC3)cc2)C1=O", "note": "[Glimepiride]", "values": [{"measurement": "% Enzyme Activity (relative to DMSO controls), Average", "setting": "CK1d; 1 uM, Average", "value": 106.25, "unit": "%"}, {"measurement": "% Enzyme Activity (relative to DMSO controls), Data 1", "setting": "CK1d; 1 uM, replicate Data 1", "value": 107.91, "unit": "%"}, {"measurement": "% Enzyme Activity (relative to DMSO controls), Data 2", "setting": "CK1d; 1 uM, replicate Data 2", "value": 104.59, "unit": "%"}, {"measurement": "% Enzyme Activity (relative to DMSO controls), Average", "setting": "CK1d; 10 uM, Average", "value": 89.28, "unit": "%"}, {"measurement": "% Enzyme Activity (relative to DMSO controls), Data 1", "setting": "CK1d; 10 uM, replicate Data 1", "value": 92.55, "unit": "%"}, {"measurement": "% Enzyme Activity (relative to DMSO controls), Data 2", "setting": "CK1d; 10 uM, replicate Data 2", "value": 86, "unit": "%"}]}, {"smiles": "Cc1ccc(C(=O)c2cc(O)c(O)c([N+](=O)[O-])c2)cc1", "note": "[Tolcapone, reference compound]", "values": [{"measurement": "remaining activity at 1 µM", "setting": "CK1d; [1]", "value": 91.7, "unit": "%"}, {"measurement": "remaining activity at 1 µM", "setting": "CK1d; [2]", "value": 91.5, "unit": "%"}, {"measurement": "remaining activity at 1 µM", "setting": "CK1d; [3]", "value": 91.9, "unit": "%"}, {"measurement": "remaining activity at 10 µM", "setting": "CK1d; [4]", "value": 35.6, "unit": "%"}, {"measurement": "remaining activity at 10 µM", "setting": "CK1d; [5]", "value": 33.2, "unit": "%"}, {"measurement": "remaining activity at 10 µM", "setting": "CK1d; [6]", "value": 38, "unit": "%"}, {"measurement": "remaining activity at 1 µM", "setting": "CK1d; compound 1μM, relative to DMSO controls, read-out: % Enzyme activity at 1μM", "value": 91.7, "unit": "%"}, {"measurement": "remaining activity at 10 µM", "setting": "CK1d; compound 10μM, relative to DMSO controls, read-out: % Enzyme activity at 10μM", "value": 35.6, "unit": "%"}]}, {"smiles": "CCCc1nc(C)c2c(=O)[nH]c(-c3cc(S(=O)(=O)N4CCN(CC)CC4)ccc3OCC)nn12", "note": "[Vardenafil]", "values": [{"measurement": "remaining activity at 1 µM", "setting": "CK1d; [1]", "value": 102, "unit": "%"}, {"measurement": "remaining activity at 1 µM", "setting": "CK1d; [2]", "value": 100, "unit": "%"}, {"measurement": "remaining activity at 1 µM", "setting": "CK1d; [3]", "value": 104, "unit": "%"}, {"measurement": "remaining activity at 10 µM", "setting": "CK1d; [4]", "value": 110, "unit": "%"}, {"measurement": "remaining activity at 10 µM", "setting": "CK1d; [5]", "value": 107, "unit": "%"}, {"measurement": "remaining activity at 10 µM", "setting": "CK1d; [6]", "value": 112, "unit": "%"}]}, {"smiles": "CC1=Nc2ccc(Cl)cc2S(=O)(=O)N1", "note": "[Diazoxide]", "values": [{"measurement": "% Enzyme Activity (relative to DMSO controls), Average", "setting": "CK1d; 1 uM, Average", "value": 95.10, "unit": "%"}, {"measurement": "% Enzyme Activity (relative to DMSO controls), Data 1", "setting": "CK1d; 1 uM, replicate Data 1", "value": 99.58, "unit": "%"}, {"measurement": "% Enzyme Activity (relative to DMSO controls), Data 2", "setting": "CK1d; 1 uM, replicate Data 2", "value": 90.62, "unit": "%"}, {"measurement": "% Enzyme Activity (relative to DMSO controls), Average", "setting": "CK1d; 10 uM, Average", "value": 97.15, "unit": "%"}, {"measurement": "% Enzyme Activity (relative to DMSO controls), Data 1", "setting": "CK1d; 10 uM, replicate Data 1", "value": 96.56, "unit": "%"}, {"measurement": "% Enzyme Activity (relative to DMSO controls), Data 2", "setting": "CK1d; 10 uM, replicate Data 2", "value": 97.73, "unit": "%"}]}]}
